From publication PMC5037475, “The Dinoflagellate Toxin 20-Methyl Spirolide-G Potently Blocks Skeletal Muscle and Neuronal Nicotinic Acetylcholine Receptors” (Toxins, 2016)
“Also recorded” adds a separate entry of the source. Read-outs that look alike come from different tables or passages of the source.

Assays:
[1] = acyclic aminoketone spirolides; cited from earlier work
human α7 nAChR = biological target: T1, human α7 nAChR (Homo sapiens, UniProt P36544); test: Voltage-clamp recording of ACh-evoked currents in Xenopus oocytes expressing human α7 nAChR; assay type: cell-based; conditions: ACh 350 μM (EC50), 3 s, −60 mV; read-out: IC50, inhibition of ACh-evoked current
T1 construct: expressed in transfected cells; host or cells: Xenopus laevis oocytes
Method: Functional analysis of the action of 20-meSPX-G was also performed using voltage-clamp recordings in Xenopus oocytes previously transfected with human α7 or α4β2-encoding cDNAs.
Oocytes were obtained under anesthesia (ethyl-3-amino benzoate methanesulfonate salt solution (1 g·L^−1, Sigma-Aldrich, Saint Quentin Fallavier, France) from mature female Xenopus laevis frogs. Oocytes were recovered and placed in a medium containing no added calcium and containing (in mM): NaCl, 88; KCl, 2.5; MgCl2, 1; and HEPES, 5 (pH 7.6). After extensive washing with this solution, oocytes were transferred to a Barth’s solution containing (in mM): NaCl, 88; KCl, 1; MgSO4, 0.33; CaCl2, 0.41; MgSO4, 0.82; Ca(NO3)2, 0.33; NaHCO3, 2.4; and HEPES, 10 (pH = 7.2) supplemented with kanamycine 0.1 mg·mL^−1. Oocytes (stage V–VI) were defolliculated (manually) and microinjected with 50 nL of human α7 mRNA (0.1 μg·μL^−1), or with a 50 nL mixture of plasmids carrying the cDNA of α4 and β2 (0.3 μg·μL^−1, each). For micro-injection a Nanoliter 2000 Micro4 Controller (World Precision Instruments, Inc., Hertfordshire, UK) was used. […]
Currents evoked by ACh were recorded with a two-microelectrode voltage-clamp amplifier (OC-725B, Warner Instrument Corp., Hamden, CT, USA) at −60 mV holding potential. […]

[2] = biological target: T2, chick chimeric α7-5HT3 nAChR (UniProt P22770+P23979, M226I/T225I); test: Competition binding with [125I]α-BTX on HEK-293 cells expressing chimeric α7-5HT3 nAChR
T2 construct: expressed in transfected cells; host or cells: HEK-293

human α4β2 nAChR [3] = biological target: T3, human α4β2 nAChR (Homo sapiens, UniProt P17787+P43681); test: Competition binding with [3H]epibatidine on HEK-293 cells expressing human α4β2 nAChR; parameters: expressed in transfected cells; host or cells: HEK-293
human α3β2 nAChR = biological target: T4, human α3β2 nAChR (Homo sapiens, UniProt P17787+P32297); test: Competition binding with [3H]epibatidine on HEK-293 cells expressing human α3β2 nAChR; conditions: 4 h, mean ± SEM
T4 construct: expressed in transfected cells; host or cells: HEK-293

[4] = system: mouse neuromuscular system; test: In vivo compound muscle action potential (CMAP) recording after local i.m. injection in anesthetized mice
From the text: Figure 3 Effects of i.m. local injections of 20-meSPX-G in vivo on the mouse neuromuscular system. (A) Compound muscle action potentials (CMAPs) recorded from the tail muscle in response to caudal motor nerve stimulation (increasing intensities, scheme), before and at various times after injection of the cyclic imine toxin (35 pg/mouse); (B) time-course of the effects of 20-meSPX-G injections (1.75, 35 and 350.5 pg/mouse) on the CMAP maximal amplitude. Arrows indicate the time of injections; and (C) dose-response curve of the effects of 20-meSPX-G injections on the maximal CMAP amplitude. Each value represents the mean ± SEM of data obtained from 4–6 mice, and is expressed relatively to that obtained before injections. The sigmoid curve was obtained by nonlinear regression analysis through data points (R^2 ≥ 0.99). The 20-meSPX-G dose required to block 50% of the maximal CMAP amplitude (dashed lines) was 47 pg/mouse.
In vivo recordings from the neuromuscular system were done in mice anesthetized by isoflurane inhalation, with a minimally-invasive electrophysiological method using Qtrac software (Institute of Neurology, Queen Square, London, UK, 2013), as previously described. In brief, electrical stimulations were delivered at a constant frequency of 1.25 Hz to the caudal motor nerve (at the base of the tail) with surface electrodes, and the compound muscle action potential (CMAP) was recorded using needle-electrodes inserted into the tail muscle. 20-me-SPX-G, diluted in phosphate buffer saline containing <1% methanol, was injected intramuscularly (i.m.), between stimulation and ground electrodes, in a single bolus of 1.25−5 µL with a micro-syringe (10 μL volume). Continuous on-line recordings were started around six minutes before injections to determine the toxin and/or solvent effects, as a function of time, on selected excitability parameters, such as the CMAP amplitude and excitability threshold.

[5] = system: Torpedo muscle-type α1_2β1γδ nAChR; test: Voltage-clamp recording of ACh-evoked currents in Xenopus oocytes microtransplanted with Torpedo nAChR; assay type: cell-based, Torpedo marmorata
Method: The fact that the amplitude of the ACh-evoked current was usually ≥1 µA (n = 6) was indicative of a good incorporation of the Torpedo muscle-type receptor into the oocyte membrane.
Torpedo marmorata fish were anaesthetized with 0.03% tricaine (Sigma-Aldrich, Saint Quentin Fallavier, France) in seawater, before surgical removal of electric organs. From sliced Torpedo electric organs, purified membranes enriched in the α1_2β1γδ nAChR were prepared at 4 °C in 5 mM glycine, using procedures described previously. Aliquots of the purified membranes were stored at –80 °C until use. Microtransplantation of Torpedo nAChR [39] consisted in a single microinjection of a membrane suspension (50 nL at 3.5 mg·mL^−1 protein) into the oocyte cytoplasm using a Nanoliter 2000 Micro4 Controller mounted on a microscope (World Precision Instruments, Inc., Hertfordshire, UK), as previously described.
Currents evoked by ACh were recorded with a two-microelectrode voltage-clamp amplifier (OC-725B, Warner Instrument Corp., Hamden, CT, USA) at −60 mV holding potential. Micro-electrodes had 0.5–1.5 MΩ tip resistances. A pCLAMP-9/Digidata-1322A system (Molecular Devices, Union City, CA, USA) was used for data recording. […]

[6] = system: isolated mouse extensor digitorum longus (EDL) neuromuscular preparations, endowed with the α1_2βδε nAChR; test: Nerve-evoked isometric twitch tension on isolated mouse EDL nerve-muscle preparations
Method: The onset of the contraction block was rapid at high 20-meSPX-G concentration, with a complete block of the twitch response within 60 min at concentrations above 10 nM.
Figure 2 (A) Nerve-evoked isometric twitch responses on isolated mouse extensor digitorum longus (EDL) before and after the action of 10 nM 20-meSPX-G; and (B) concentration-response curve for the action of 20-meSPX-G on nerve-evoked isometric twitch response. Data points represent the normalized twitch response, relative to the respective controls. Each point is the mean ± SEM of 4 nerve muscle preparations at 60 min toxin exposure.
Isometric twitch tension measurements were performed on isolated mouse EDL nerve-muscle preparations after rapid removal from euthanized animals. The isolated EDL nerve-muscle preparation was mounted in a silicone-lined bath perfused with a Krebs-Ringer solution of the following composition (in mM): NaCl 140, KCl 5, CaCl2 2, MgCl2 1, glucose 11, and HEPES 5 (pH 7.4), continuously perfused with pure O2 throughout the experiment. For muscle tension measurements, one of the muscle tendons was securely anchored onto the silicone-coated bath. The other tendon was attached to an isometric force displacement transducer (FT03, Grass Instruments, West Warwick, RI, USA) via an adjustable stainless-steel hook. Muscle twitches were induced either by motor nerve stimulation, or by direct electrical muscle stimulation with supramaximal 0.15 ms duration current pulses delivered by a stimulator (S-44 Grass Instruments), through an electrode assembly placed along the muscle length. The resting tension was monitored and kept constant for each tested preparation through a mobile micrometer stage. Signals from the force transducer were collected, and digitized with a Digidata-1322A A/D interface board (Axon Instruments, Union City, CA, USA), as previously reported.

mouse = conditions: cited from earlier work; for LD50: mouse
[7] = biological target: Torpedo muscle-type α1_2β1γδ nAChR; test: Competition binding with [125I]α-BTX on Torpedo membranes; parameters: species or system Torpedo marmorata; conditions: for Ki: [125I]α-BTX, equilibrium 4 h, mean ± SEM
human α4β2 nAChR [8] = biological target: T3, human α4β2 nAChR; test: Voltage-clamp recording of ACh-evoked currents in Xenopus oocytes expressing human α4β2 nAChR; assay type: cell-based; conditions: ACh 150 μM (EC50), −60 mV; read-out: IC50, inhibition of ACh-evoked current
From the text: Oocytes were obtained under anesthesia (ethyl-3-amino benzoate methanesulfonate salt solution (1 g·L^−1, Sigma-Aldrich, Saint Quentin Fallavier, France) from mature female Xenopus laevis frogs. Oocytes were recovered and placed in a medium containing no added calcium and containing (in mM): NaCl, 88; KCl, 2.5; MgCl2, 1; and HEPES, 5 (pH 7.6). After extensive washing with this solution, oocytes were transferred to a Barth’s solution containing (in mM): NaCl, 88; KCl, 1; MgSO4, 0.33; CaCl2, 0.41; MgSO4, 0.82; Ca(NO3)2, 0.33; NaHCO3, 2.4; and HEPES, 10 (pH = 7.2) supplemented with kanamycine 0.1 mg·mL^−1. Oocytes (stage V–VI) were defolliculated (manually) and microinjected with 50 nL of human α7 mRNA (0.1 μg·μL^−1), or with a 50 nL mixture of plasmids carrying the cDNA of α4 and β2 (0.3 μg·μL^−1, each). For micro-injection a Nanoliter 2000 Micro4 Controller (World Precision Instruments, Inc., Hertfordshire, UK) was used. Oocytes that were microinjected were incubated at 18 °C in Barth’s solution, and electrophysiological recordings were performed 3−4 days after microinjection.
Currents evoked by ACh were recorded with a two-microelectrode voltage-clamp amplifier (OC-725B, Warner Instrument Corp., Hamden, CT, USA) at −60 mV holding potential. Micro-electrodes had 0.5–1.5 MΩ tip resistances. […]

[9] = biological target: Torpedo muscle-type α1_2β1γδ nAChR; conditions: previously reported; cited from earlier work
[10] = system: mouse neuromuscular system; conditions: local injection, mice; cited from earlier work
[11] = biological target: Torpedo muscle-type α1_(2)β1γδ nicotinic acetylcholine receptor (Torpedo marmorata (endogenous in electric organ)) (UniProt P02711); test: radioligand binding
[12] = i.m. injection, anesthetized mice, corresponding to 47 pg/mouse

C=C(CCCC(=O)C1(CCC(C)CN)CCC(C2C=C(C)C(=O)O2)=C(C)C1/C=C(\C)C(O)CC)CC1CCC(C)(O)C2(CCC3(CC(C)CO3)O2)O1 (stereo not drawn) [spirolide E]
toxicity [1]: no toxicity

20-methyl spirolide G [20-meSPX-G]
IC50 (human α7 nAChR): 0.48 nM
Ki ([2]; [125I]α-BTX, HEK-293 cells, mean ± SEM): 0.11 ± 0.08 nM
times more active than MLA ([2]; α7 / chimeric α7-5HT3, from Ki values): about 7.5 times
fold lower affinity in human α4β2 than in human α3β2 nAChR (human α4β2 nAChR [3]; [3H]epibatidine competition binding): 90 fold
Ki (human α4β2 nAChR [3]; [3H]epibatidine, HEK-293 cells, 4 h, mean ± SEM): 3.6 ± 0.07 nM
Ki (human α3β2 nAChR): 0.04 ± 0.001 nM
onset of the effect on CMAP amplitude ([4]; 1.75 pg/mouse i.m.): 15.8 ± 1.9 min
block of CMAP amplitude ([4]; 1.75 pg/mouse i.m., mean): 9%
block of CMAP amplitude ([4]; 350.5 pg/mouse i.m.): 91%
onset of the effect on CMAP amplitude ([4]; 350.5 pg/mouse i.m.): 7.7 ± 2.1 min
CMAP maximal amplitude after spontaneous recovery, relative to controls ([4]; 35–87.6 pg/mouse i.m.): 78.5%
time for CMAP maximal amplitude to return to 78.5% of controls ([4]; 35–87.6 pg/mouse i.m.): ≤ 53.3 ± 19.6 min
ED50, dose required to block 50% of the maximal CMAP amplitude ([4]; i.m. injection, anesthetized mice): 47 pg/mouse
ED50 (also called IC50), block of maximal CMAP amplitude [4, 12]: 0.0017 µg/kg
ED50, block of maximal CMAP amplitude [4, 12]: 2.4 pmol/kg
agonist action ([5]; 3.1 nM toxin applied alone, −60 mV): no agonist action
IC50 ([5]; ACh 25 µM (EC50), −60 mV holding potential, read-out: IC50, inhibition of ACh-evoked current): 0.36 nM
reversal of neuromuscular transmission block by wash-out ([6]; continuous wash-out for 30 min with spirolide-free medium): not completely reversed
IC50 ([6]; isolated mouse EDL, 60 min toxin exposure, read-out: IC50, block of nerve-evoked muscle contractions): 4.8 nM
concentration giving complete block of the twitch response within 60 min ([6]; nerve-evoked isometric twitch, isolated mouse EDL): above 10 nM
effect on contractions elicited by direct electrical muscle stimulation ([6]; when nerve-evoked twitch was blocked (10 nM)): lack of a direct effect; also recorded: no action
lethality (mouse; mice, i.p. administration of 0.063 mg·kg^−1): absence of lethality
LD50 (mouse; by feeding): 630 µg/kg
LD50 (mouse; intraperitoneal (i.p.) injection): 8 µg/kg
LD50 (mouse; orally by gavage): 160 µg/kg
Ki [7]: 0.028 ± 0.005 nM
fold lower affinity than α-toxin from Naja nigricollis ([7]; from Ki values of Table 1): about 2.5 fold
IC50 (human α4β2 nAChR [8]): 2.1 nM

COc1cc2c3cc1Oc1cc(ccc1O)C[C@@H]1c4c(cc(OC)c(O)c4Oc4ccc(cc4)C[C@@H]3N(C)CC2)CC[N+]1(C)C [d-tubocurarine, reference compound]
fold higher concentration needed for a similar degree of neuromuscular blockade (IC50) compared with 20-meSPX-G ([6]; comparison with literature value): 75 fold

C=C1CCCC2=NC[C@H](C)[C@@H](C)C[C@@]23CCC([C@@H]2C=C(C)C(=O)O2)=C(C)[C@@H]3/C=C(\C)[C@@H](O)C[C@@H]2CC[C@@]3(CC[C@@]4(O[C@@H](CC[C@@]4(C)O)C1)O3)O2 [13-desmethyl spirolide C]
Ki [9]: 0.08 nM
IC50, reduction of CMAP amplitude in vivo [10]: 6 ng/kg

C=C1CCCC2=NC[C@H](C)[C@@H](C)C[C@@]23CCC(C(=O)O)=C[C@@H]3[C@@H]2O[C@]3(C[C@H]4CCC[C@@]5(CC[C@@]6(O[C@@H](CC[C@@]6(C)O)C1)O5)O4)C[C@@H](C)[C@@H](O)[C@H]2O3 [pinnatoxin A]
Ki [9]: 2.8 nM

spirolide F
toxicity [1]: no toxicity

α-toxin from Naja nigricollis (from UniProt P01426 1-61) (natural protein)
Ki [11]: 0.011 nM

B1: α-Toxin (snake): α-toxin from Naja nigricollis, a short-chain curaremimetic toxin (61 residues and four disulfides), synthesized (protein)
chain: LECHNQQSSQPPTTKTCPGETNCYKKVWRDHRGTIIERGCGCPTVKPGIKLNCCTTDKCNN
modifications: disulfide (positions not given here)
notes: α-toxin from Naja nigricollis, a short-chain curaremimetic toxin (61 residues and four disulfides), synthesized
Ki [7]: 0.011 ± 0.002 nM
